How the values were obtained:
[1] = Liver microsome stability assay (Cyprotex), human; type: in vitro ADME; conditions: human liver microsomes
Procedure: (§1) Microsome Assay to Measure Stability: The stability of the compounds was evaluated using a liver cell microsome assay commercially available from Cyprotex (Watertown, MA) (https://www.cyprotex.com/admepk/in-vitro-metabolism/microsomal-stability).

MDA-MB-231 TNBC cells = assay: Triple-negative breast cancer cell death assay (LD50); type: cell-based; conditions: MDA-MB-231, 48 h treatment, live cell counts normalized to DMSO
Procedure: (§2) Triple-Negative Breast Cancer Cell Death Assay to Measure LD50: The efficacy and selectivity of the disclosed compounds was evaluated in a TNBC cell line assay (MDA-MB-231) and/or human foreskin fibroblast 2088 cells, as was protein binding to human serum and microsomal stability of the disclosed compounds, as described herein.
(§3) Cells from a TNBC cell line (MDA-MB-231) (approximately 100,000 cells) and/or human foreskin fibroblast 2088 cells were seeded into each well of a 6-welled polystyrene treated tissue culture plate and were allowed to attach for 18 h before treatment with the test compound. Cells were then treated every 24 h with a fresh batch of media containing the test compound at one of the respective concentration(s) (Log10 Molar [C]): −5.0, −5.5, −6.0, −6.5, −7.0, −7.5 so that a complete dose-response could be calculated.
(§4) After 48 h of treatment, adherent cells were fixed with a 4% paraformaldehyde solution and stained with Hoechst 33342 nuclear dye (5 μg/mL). Each well was imaged at 10× magnification on a Keyence BZ-X710 microscope and live cell counts were performed in triplicate for each condition using automated ImageJ computational software. LD50 values represent the percentage of live cells after treatment with the test compound, which was calculated after normalization to the DMSO only treated control group.

[2] = Liver microsome stability assay (Cyprotex), mouse; type: in vitro ADME; conditions: mouse liver microsomes
Procedure: as §1

CDK8 = CDK8 (Homo sapiens, UniProt P49336); assay: LanthaScreen europium kinase binding assay (FRET displacement), CDK8
CDK8, sequence (P49336 whole entry): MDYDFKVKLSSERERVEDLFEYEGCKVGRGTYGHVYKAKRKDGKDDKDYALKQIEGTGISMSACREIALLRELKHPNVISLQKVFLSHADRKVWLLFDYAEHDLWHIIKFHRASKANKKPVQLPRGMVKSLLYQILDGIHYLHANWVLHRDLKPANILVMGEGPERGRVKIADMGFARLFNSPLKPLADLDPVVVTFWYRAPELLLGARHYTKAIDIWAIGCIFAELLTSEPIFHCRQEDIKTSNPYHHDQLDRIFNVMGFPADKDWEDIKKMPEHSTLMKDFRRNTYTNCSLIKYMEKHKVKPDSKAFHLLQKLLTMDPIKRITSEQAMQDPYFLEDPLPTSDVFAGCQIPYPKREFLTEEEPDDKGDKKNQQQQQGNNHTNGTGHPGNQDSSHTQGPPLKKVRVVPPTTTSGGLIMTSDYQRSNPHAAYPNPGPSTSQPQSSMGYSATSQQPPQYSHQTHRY
CDK8, sequence (P24863 whole entry partner): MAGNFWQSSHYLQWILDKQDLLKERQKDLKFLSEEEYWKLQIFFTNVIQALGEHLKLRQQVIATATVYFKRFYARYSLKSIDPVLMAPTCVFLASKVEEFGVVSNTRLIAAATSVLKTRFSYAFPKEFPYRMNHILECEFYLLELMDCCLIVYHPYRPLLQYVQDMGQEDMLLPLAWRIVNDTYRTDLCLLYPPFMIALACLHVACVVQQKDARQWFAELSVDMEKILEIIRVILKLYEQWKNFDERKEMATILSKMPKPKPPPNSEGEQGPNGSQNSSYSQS

CDK19/CycC = CDK19/CycC (Homo sapiens, UniProt Q9BWU1); assay: LanthaScreen europium kinase binding assay (FRET displacement), CDK19; conditions: for CDK19 Selectivity: CDK19/CDK8 selectivity based on IC50 values; for IC50: his-tagged CDK19/CycC 5 nM, tracer 10 nM, 3 h incubation
CDK19/CycC, sequence (Q9BWU1 whole entry): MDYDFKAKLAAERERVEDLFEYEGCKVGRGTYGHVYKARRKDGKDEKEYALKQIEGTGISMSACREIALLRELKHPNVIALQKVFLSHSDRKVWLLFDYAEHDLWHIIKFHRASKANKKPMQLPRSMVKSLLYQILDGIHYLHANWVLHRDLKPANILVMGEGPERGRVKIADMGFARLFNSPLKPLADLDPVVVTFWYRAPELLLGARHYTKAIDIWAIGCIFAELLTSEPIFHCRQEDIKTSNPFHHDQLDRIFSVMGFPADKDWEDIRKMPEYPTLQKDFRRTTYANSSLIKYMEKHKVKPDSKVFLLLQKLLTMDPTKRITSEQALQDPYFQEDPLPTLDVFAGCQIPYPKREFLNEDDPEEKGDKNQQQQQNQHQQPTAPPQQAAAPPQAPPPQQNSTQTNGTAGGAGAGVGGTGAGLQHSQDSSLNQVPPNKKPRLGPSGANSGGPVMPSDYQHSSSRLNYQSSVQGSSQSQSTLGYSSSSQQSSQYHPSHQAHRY
CDK19/CycC, sequence (P24863 whole entry partner): as the sequence (P24863 whole entry partner) above
In short: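 His-tagged CDK19/CycC (5 nM) preincubated 30 min with 10 nM Alexa Fluor 665 ATP-site tracer, 2 nM biotin anti-his antibody and 2 nM europium-streptavidin, then titrated with compound (10^−4.5 to 10^−8 M). TR-FRET (ex 317, em 620/665 nm) read after 3 h at room temperature; duplicates, three independent runs, DMSO-normalized IC50.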

[3] = tested on: human foreskin fibroblast 2088 cells; assay: Cell death assay in normal fibroblasts (LD50); type: cell-based; conditions: FIG. 1B
Procedure: as §2, §3, §4

Row | SMILES | IC50 (CDK8) [nM] | CDK19 Selectivity (CDK19/CycC) | IC50 (CDK19/CycC) [nM] | Human Microsome Stability [1] [μL/min/mg protein] | MDA LD50 (MDA-MB-231 TNBC cells) [nM] | Mouse Microsome Stability [2] [μL/min/mg protein] | concentration at which significant fibroblast cell death was observed [3]
1 | c1cc(Nc2cnc(Nc3ccc(C4CCC4)cc3)nc2)ccn1 [Compound A39] | 19 | 2 | 9.5 | 7.6 | 158 | 38.6 | –
2 | CC(C)Cc1ccc(Nc2ncc(Nc3ccnc4ccccc34)cn2)cc1 [Compound A11] | 22 | 0.9 | 25 | 28.7 | 180 | 31.3 | –
3 | CC(C)Cc1ccc(Nc2ncc(Nc3ccncc3OC3CCCC3)cn2)cc1 [Compound A53] | 56 | ≥22 | ≤ 2.5 | 36 | 91 | 19 | –
4 | CNC(=O)c1cc(Nc2cnc(Nc3ccc(CC(C)C)cc3)nc2)ccn1 [Compound A47] | 737 | 2.4 | 308 | – | – | – | 10,000 nM
5 | Cc1cnccc1Nc1cnc(Nc2ccc(CC(C)C)cc2)nc1 [Compound A21] | 564 | 15 | 38 | 159.0 | 178 | 93.0 | –
6 | Cc1cc(Nc2cnc(Nc3ccc(C4CC4)cc3)nc2)cc(C)n1 [Compound A18] | 10000 | – | 10000 | – | – | – | –
7 | COc1cc(Nc2cnc(Nc3ccc(CC(C)C)cc3)nc2)ccn1 [Compound A23] | 451 | 4.5 | 100 | – | – | – | –
8 | Cc1cc(Nc2cnc(Nc3ccc(C4CC4)cc3)nc2)ccn1 [Compound A17] | 1160 | 2.8 | 419 | – | – | – | –
9 | CCCc1ccc(Nc2ncc(Nc3cc(C)nc(C)c3)cn2)cc1 [Compound A20] | 10000 | – | 10000 | – | – | – | –

More lines, main results first:

Row | IC50 (CDK8) [nM] | CDK19 Selectivity (CDK19/CycC) | IC50 (CDK19/CycC) [nM] | SMILES | Human Microsome Stability [1] [μL/min/mg protein] | MDA LD50 (MDA-MB-231 TNBC cells) [nM] | Mouse Microsome Stability [2] [μL/min/mg protein] | concentration at which significant fibroblast cell death was observed [3]
10 | 95 | 3 | 33 | Cc1cnccc1Nc1cnc(Nc2ccc(OC(C)C)cc2)nc1 [Compound A160] | – | – | – | –
11 | 10000 | – | 10000 | CC(C)Cc1cccc(Nc2ncc(Nc3ccnc(C(F)(F)F)c3)cn2)c1 [Compound A35] | – | – | – | –
12 | 6 | 3 | ≤ 2.5 | Cc1cc(C(=O)c2cnc(Nc3ccc(CC(C)C)cc3)nc2)ccn1 [Compound A71] | – | – | – | –
13 | 9030 | 1.6 | 5690 | c1cc(Nc2ncc(Nc3ccncc3)cn2)cc(C2CC2)c1 [Compound A26] | – | – | – | –
14 | 201 | 5 | 41 | CC(C)Cc1ccc(Nc2ccc(C(=O)c3ccncc3Cl)cn2)cc1 [Compound A123] | – | – | – | –
15 | 83 | 2 | 41 | c1cc(Nc2cnc(Nc3ccc4c(c3)CCCC4)nc2)ccn1 [Compound A37] | – | – | – | –
16 | 248 | 5 | 54 | CC(C)Cc1ccc(Nc2ncc(Nc3ccncc3C#Cc3ccccc3)cn2)cc1 [Compound A156] | – | – | – | –
17 | 20 | 2 | 9 | CC(C)Cc1ccc(Nc2ncc(C(F)(F)c3ccncc3)cn2)cc1 [Compound A161] | – | – | – | –
18 | 16 | ≥6 | ≤ 2.5 | Cc1cnccc1C(=O)c1cnc(Nc2ccc(CC(C)C)cc2)nc1 [Compound A73, (2-((4-isobutylphenyl)amino)pyrimidin-5-yl) (3-methylpyridin-4-yl) methanone] | – | – | – | –
